For test [1], the target named is T1, Carboxylic ester hydrolase (Equus caballus, UniProt Q9N1N9). Description: (§1) Tested for kinetic data for the horse serum Butyrylcholinesterase-Catalyzed Hydrolysis of Butyrylthiocholine; 10e-3/M. sec. Particulars: read-out: kon (M-1-s-1).
In test [2] the target is T1, Carboxylic ester hydrolase. The experiment in a line: ChEBML_41403. The conditions noted are these: read-out: kon (M-1-s-1).
From the text: as §1

These results are taken from BindingDB's records for doi:10.1016/s0960-894x(98)00484-3 (National Chung-Hsing University, 1999).

As a reminder, the kon is the rate constant with which the complex forms.

The structures appear in SMILES notation.

T1 sequence (Q9N1N9 whole entry): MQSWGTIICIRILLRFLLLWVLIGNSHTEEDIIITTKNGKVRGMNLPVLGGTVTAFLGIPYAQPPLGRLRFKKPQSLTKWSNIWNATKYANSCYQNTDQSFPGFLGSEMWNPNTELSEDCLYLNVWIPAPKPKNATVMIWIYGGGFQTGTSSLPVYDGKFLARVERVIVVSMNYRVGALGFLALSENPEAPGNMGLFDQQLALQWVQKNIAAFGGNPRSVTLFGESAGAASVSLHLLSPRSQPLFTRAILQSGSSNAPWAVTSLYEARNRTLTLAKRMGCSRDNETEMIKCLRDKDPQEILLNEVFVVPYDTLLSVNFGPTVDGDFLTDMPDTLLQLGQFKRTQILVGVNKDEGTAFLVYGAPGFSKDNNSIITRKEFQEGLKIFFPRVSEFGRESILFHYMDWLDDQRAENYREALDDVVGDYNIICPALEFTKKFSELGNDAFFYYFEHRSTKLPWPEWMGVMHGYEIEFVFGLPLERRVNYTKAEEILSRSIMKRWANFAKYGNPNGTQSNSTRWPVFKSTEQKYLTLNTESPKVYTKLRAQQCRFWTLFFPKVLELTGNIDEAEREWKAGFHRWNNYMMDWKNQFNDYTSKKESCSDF

For `CCCCNC(=O)OC1C2CC3CC(C2)CC1C3` (centres undefined), the kon in test [1] is 1800 M⁻¹ s⁻¹. For `CCCCNC(=O)OC1C[C@H]2CCC1C2` (stereo partly drawn) [Butyl-carbamic acid (S)-bicyclo[2.2.1]hept-2-yl ester], the kon is 110000 M⁻¹ s⁻¹ in test [1] and 2200 M⁻¹ s⁻¹ in test [2]. As for `CCCCNC(=O)OC12CC3CC(CC(C3)C1)C2` [Butyl-carbamic acid adamantan-1-yl ester], the kon in test [1] turned out to be 1900 M⁻¹ s⁻¹.
